In patent US5486511A, “4-amino-17β-(cyclopropyloxy)androst-4-en-3-one, 4-amino-17β-(cyclopropylamino)androst-4-en-3-one and related compounds as C17-20 lyase and 5α-reductase” (Merrell Dow Pharmaceuticals Inc., priority 1994, dated 1996) one finds Km data, which are given here for four molecules.

Data set [1] deals with nude mouse lyase. The data set is described as follows: Inhibition of athymic nude mouse steroid C17,20 lyase (testicular microsomes). Type of data set: biochemical. To be noted: substrate, athymic nude mouse enzyme. On the procedure: (§1) The activity of the present compounds as inhibitors of steroid C17,20 lyase was established using microsomal preparations of the steroid C17,20 lyase enzyme from human or laboratory animal testes. Human testes used for this purpose were obtained from therapeutic orchiectomies. Specifically, microsomes were isolated from human, cynomolgus monkey, dog, rat or athymic nude mouse testicular tissue. The compound to be tested was dissolved in dimethyl sulfoxide and diluted in 0.05M potassium phosphate buffer to give the desired concentrations of the test compound. The potassium phosphate buffer was at pH 7.4 for the human, monkey and dog lyase assays and at pH 7.2 for the rat and athymic nude mouse lyase assays. Assays also contained 1 mM NADPH, 5 mM glucose-6-phosphate, 1 IU/ml glucose-6-phosphate dehydrogenase (an NADPH regenerating system) and microsomal protein in a total volume of 0.2 mL. Control assays contained all components including dimethyl sulfoxide, but with no test compound. All assays were performed in duplicate. […] Radioactivity in the steroid peaks was measured by a Radiomatic Model HS Flo-One detector.
(§2) The enzyme activity for each incubate was calculated from the percent conversion of substrate to products, and the results were expressed as percent inhibition of control. […] The Ki and kinact for time dependent inhibitors were determined by graphical analysis of Kitz-Wilson plots. […]

Data set [2] relates to rat lyase. Briefly: Inhibition of rat steroid C17,20 lyase (testicular microsomes). In kind it is biochemical. As to conditions: substrate, rat enzyme. On the procedure:
as §1, §2

For data set [3], the system named is canine lyase. The data set is described as follows: Inhibition of canine steroid C17,20 lyase (testicular microsomes). Type of data set: biochemical, dog. As to conditions: substrate, dog lyase. How it is done:
as §1, §2

Substrate in data set [4]: CC(=O)[C@@]1(O)CC[C@H]2[C@@H]3CC=C4C[C@@H](O)CC[C@]4(C)[C@H]3CC[C@@]21C
The data set is described as follows: Inhibition of human steroid C17,20 lyase (testicular microsomes). As to conditions: other: substrate, 34.0 °C. Type of data set: biochemical. How it is done: as §1, §2

Substrate in data set [5]: CC(=O)[C@@]1(O)CC[C@H]2[C@@H]3CC=C4C[C@@H](O)CC[C@]4(C)[C@H]3CC[C@@]21C
Briefly: Inhibition of cynomolgus monkey steroid C17,20 lyase (testicular microsomes), time dependent, Kitz-Wilson. In kind it is biochemical. To be noted: other: substrate, 34.0 °C. How it is done: as §1, §2

The term Km denotes the concentration of substrate that gives half-maximal velocity. For `CC(=O)[C@@]1(O)CC[C@H]2[C@@H]3CCC4=CC(=O)CC[C@]4(C)[C@H]3CC[C@@]21C` [17α-hydroxyprogesterone, reference compound], the Km is 0.03 µM in data set [1] and 0.1 µM in data set [2].
Consider `CC(=O)[C@@]1(O)CC[C@H]2[C@@H]3CC=C4C[C@@H](O)CC[C@]4(C)[C@H]3CC[C@@]21C` [17α-hydroxypregnenolone, reference compound], for which the Km in data set [3] stood at 0.06 µM.

B1: human lyase (Homo sapiens) (protein)
chain: MWELVALLLLTLAYLFWPKRRCPGAKYPKSLLSLPLVGSLPFLPRHGHMHNNFFKLQKKYGPIYSVRMGTKTTVIVGHHQLAKEVLIKKGKDFSGRPQMATLDIASNNRKGIAFADSGAHWQLHRRLAMATFALFKDGDQKLEKIICQEISTLCDMLATHNGQSIDISFPVFVAVTNVISLICFNTSYKNGDPELNVIQNYNEGIIDNLSKDSLVDLVPWLKIFPNKTLEKLKSHVKIRNDLLNKILENYKEKFRSDSITNMLDTLMQAKMNSDNGNAGPDQDSELLSDNHILTTIGDIFGAGVETTTSVVKWTLAFLLHNPQVKKKLYEEIDQNVGFSRTPTISDRNRLLLLEATIREVLRLRPVAPMLIPHKANVDSSIGEFAVDKGTEVIINLWALHHNEKEWHQPDQFMPERFLNPAGTQLISPSVSYLPFGAGPRSCIGEILARQELFLIMAWLLQRFDLEVPDDGQLPSLEGIPKVVFLIDSFKVKIKVRQAWREAQAEGST
notes: microsomes were isolated from human, cynomolgus monkey, dog, rat or athymic nude mouse testicular tissue; from tissue; host or cells: human testis microsomes (therapeutic orchiectomies)
As to B1, in data set [4], the Km is 0.30 µM.

B2: cynomolgus monkey C17,20 lyase (Macaca fascicularis) (protein)
chain: MWELVALLLLTLAYLFWPKRRCPGAKYPKSLLSLPLVGSLPFLPRHGHMHNNFFKLQKKYGPIYSVRMGTKTTVIVGHHQLAKEVLIKKGKDFSGRPQVTTLDILSNNRKGIAFADYGAHWQLHRRLAMATFALFKDGDQKLEKIICQEISTLCDMLATHNGQTIDISFPVFVAITNVISLICFNISYKNGDPELKIVHNYNEGIIDSLGKESLVDLFPWLKVFPNKTLEKLKRHVKTRNDLLTKIFENYKEKFHSDSITNMLDVLMQAKMNSDNGNAGPDQDSELLSDNHILTTIGDIFGAGVETTTSVVKWIVAFLLHNPQVKKKLYEEIDQNVGFSRTPTISDRNRLLLLEATIREVLRIRPVAPMLIPHKANVDSSIGEFAVDKGTHVIINLWALHHNEKEWHQPDQFMPERFLNPAGTQLISPSLSYLPFGAGPRSCIGEILARQELFLIMAWLLQRFDLEVPDDGQLPSLEGNPKVVFLIDSFKVKIKVRQAWREAQAEGST
notes: microsomes were isolated from human, cynomolgus monkey, dog, rat or athymic nude mouse testicular tissue; from tissue; host or cells: cynomolgus monkey testis microsomes
With B2, in data set [5], the Km is 0.11 µM.
